Data: patent US20130253449A1, “NORADRENERGIC AND SPECIFIC SEROTONERGIC ANTIDEPRESSANT-CONTAINING TRANSDERMAL PATCH” (priority 2010, published 2013)

Columns and labels:
[1] = test system: brain monoamine (NA, DA and 5-HT); assay: Measurement of brain monoamine level (microdialysis, prefrontal region) during 12-hour mirtazapine administration; assay type: in vivo, rat
Description: Rats (male, body weight: 200 to 300 g, n=5) were anesthetized by inhalation of isoflurane, and then a cannula for long-term continuous administration was buried under the skin of each rat and a guide (microdialysis) was in the prefrontal region thereof. In 5 to 7 days after the guide insertion, a probe for measurement of monoamine in the brain was inserted into the prefrontal region, and via the microsyringe pump connected to the probe, a perfusate was perfused at a flow rate of 0.5 μL/min. For mirtazapine administration, a mirtazapine 3 mg/mL/kg solution was administered in a predetermined dose via the microsyringe pump, taking 12 hours. A Ringer' s solution was used as the perfusate, which was collected at intervals of 1 hour using a fraction collector.
(§1) Monoamine was measured from the perfusate collected by the fraction collector, and mirtazapine was measured from the plasma sample through HPLC.

[2] = Measurement of plasma mirtazapine level during 12-hour mirtazapine administration; assay type: in vivo; conditions: rat, subcutaneous, 6 hours after start of administration, 3 mg/mL/kg over 12 hours, read-out: mean concentration of mirtazapine in rat plasma (mean±SEM)
Description: Next, at the same dose mode and through the same administration route as above, mirtazapine (3 mg/mL/kg) was administered in a predetermined dose, taking 12 hours, and in 6 hours after the start, the blood was collected. The time at which the administration was started was referred to as the test start time. Heparin was added to the collected blood and then centrifuged, and the thus-separated plasma was the sample.
as §1

[3] = 18 hours after start of administration, mirtazapine 3 mg/mL/kg solution over 12 hours

Structure (SMILES): CN1CCN2c3ncccc3Cc3ccccc3C2C1 (stereo not shown) [mirtazapine]
- NA and DA in rat prefrontal region ([1]; 1 hour after start of mirtazapine administration): increase in NA and DA was admitted
- NA level in rat prefrontal region (mean±SEM) ([1]; 7 hours after start of administration, mirtazapine 3 mg/mL/kg solution over 12 hours, n=5): 184.7±17.3%
- DA level in rat prefrontal region ([1]; 8 hours after start of administration, mirtazapine 3 mg/mL/kg solution over 12 hours, n=5): 222.1±38.5%
- DA level in rat prefrontal region [1, 3]: 159.2±15.6%
- NA level in rat prefrontal region [1, 3]: 124.2±10.7
- influence on 5-HT in rat prefrontal region ([1]; mirtazapine 3 mg/mL/kg solution over 12 hours): no influence on 5-HT was admitted
- concentration at 6 h [2]: 27.5 ± 3.5 ng/mL
